In one test the target is BRM (Homo sapiens, UniProt P51531). Briefly: ATPase catalytic activity of BRM (ADP-Glo in vitro biochemical assay). The conditions noted are these: for BRM Max % Inhibition: Table 6.
A further test has as its target BRG-1 (Homo sapiens, UniProt P51532). Briefly: ATPase catalytic activity of BRG-1 (ADP-Glo in vitro biochemical assay). The conditions noted are these: for BRG1 Max % Inhibition: Table 6.

Chain of BRG-1 (P51532 whole entry): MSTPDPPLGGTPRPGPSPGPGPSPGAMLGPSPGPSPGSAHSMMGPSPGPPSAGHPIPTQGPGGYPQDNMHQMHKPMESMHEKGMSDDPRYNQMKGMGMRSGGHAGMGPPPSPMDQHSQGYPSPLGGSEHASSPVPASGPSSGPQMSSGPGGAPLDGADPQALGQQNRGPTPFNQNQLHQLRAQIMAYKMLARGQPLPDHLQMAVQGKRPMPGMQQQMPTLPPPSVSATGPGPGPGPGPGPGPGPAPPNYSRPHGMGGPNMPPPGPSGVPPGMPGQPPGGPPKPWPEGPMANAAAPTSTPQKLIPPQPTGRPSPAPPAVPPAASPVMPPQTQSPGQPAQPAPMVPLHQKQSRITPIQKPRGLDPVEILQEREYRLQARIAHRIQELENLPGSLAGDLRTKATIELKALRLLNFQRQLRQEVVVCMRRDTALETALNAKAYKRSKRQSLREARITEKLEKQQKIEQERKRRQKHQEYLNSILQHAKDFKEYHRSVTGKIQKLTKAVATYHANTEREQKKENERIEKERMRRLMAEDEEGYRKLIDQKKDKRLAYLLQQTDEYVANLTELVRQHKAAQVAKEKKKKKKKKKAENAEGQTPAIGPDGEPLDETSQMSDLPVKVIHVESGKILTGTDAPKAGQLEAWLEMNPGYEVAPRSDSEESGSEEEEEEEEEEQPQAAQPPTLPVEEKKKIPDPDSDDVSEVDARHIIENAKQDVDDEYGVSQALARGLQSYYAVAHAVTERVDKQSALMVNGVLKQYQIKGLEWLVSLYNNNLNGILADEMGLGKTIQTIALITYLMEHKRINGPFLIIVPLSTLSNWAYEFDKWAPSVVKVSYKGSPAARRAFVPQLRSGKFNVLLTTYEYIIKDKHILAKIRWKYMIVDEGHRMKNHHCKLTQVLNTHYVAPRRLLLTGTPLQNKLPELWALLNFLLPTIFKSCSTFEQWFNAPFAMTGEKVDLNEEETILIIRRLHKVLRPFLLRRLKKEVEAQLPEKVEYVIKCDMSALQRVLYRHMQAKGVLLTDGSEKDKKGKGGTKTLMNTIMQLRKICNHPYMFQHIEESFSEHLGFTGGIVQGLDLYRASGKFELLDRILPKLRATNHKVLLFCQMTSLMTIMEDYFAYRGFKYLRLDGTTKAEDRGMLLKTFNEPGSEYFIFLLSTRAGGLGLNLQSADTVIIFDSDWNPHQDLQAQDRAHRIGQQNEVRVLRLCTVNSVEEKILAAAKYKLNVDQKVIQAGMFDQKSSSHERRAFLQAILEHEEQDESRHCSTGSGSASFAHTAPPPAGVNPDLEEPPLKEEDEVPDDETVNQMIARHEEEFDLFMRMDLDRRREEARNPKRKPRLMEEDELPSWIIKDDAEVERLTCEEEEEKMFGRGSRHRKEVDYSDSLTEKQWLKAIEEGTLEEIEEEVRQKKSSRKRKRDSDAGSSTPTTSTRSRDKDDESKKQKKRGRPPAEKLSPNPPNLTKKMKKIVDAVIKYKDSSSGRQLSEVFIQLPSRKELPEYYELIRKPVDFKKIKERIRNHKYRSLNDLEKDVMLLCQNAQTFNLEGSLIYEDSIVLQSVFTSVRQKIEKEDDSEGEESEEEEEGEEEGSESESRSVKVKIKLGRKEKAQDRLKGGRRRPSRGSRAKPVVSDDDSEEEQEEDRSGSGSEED
Chain of BRM (P51531 whole entry): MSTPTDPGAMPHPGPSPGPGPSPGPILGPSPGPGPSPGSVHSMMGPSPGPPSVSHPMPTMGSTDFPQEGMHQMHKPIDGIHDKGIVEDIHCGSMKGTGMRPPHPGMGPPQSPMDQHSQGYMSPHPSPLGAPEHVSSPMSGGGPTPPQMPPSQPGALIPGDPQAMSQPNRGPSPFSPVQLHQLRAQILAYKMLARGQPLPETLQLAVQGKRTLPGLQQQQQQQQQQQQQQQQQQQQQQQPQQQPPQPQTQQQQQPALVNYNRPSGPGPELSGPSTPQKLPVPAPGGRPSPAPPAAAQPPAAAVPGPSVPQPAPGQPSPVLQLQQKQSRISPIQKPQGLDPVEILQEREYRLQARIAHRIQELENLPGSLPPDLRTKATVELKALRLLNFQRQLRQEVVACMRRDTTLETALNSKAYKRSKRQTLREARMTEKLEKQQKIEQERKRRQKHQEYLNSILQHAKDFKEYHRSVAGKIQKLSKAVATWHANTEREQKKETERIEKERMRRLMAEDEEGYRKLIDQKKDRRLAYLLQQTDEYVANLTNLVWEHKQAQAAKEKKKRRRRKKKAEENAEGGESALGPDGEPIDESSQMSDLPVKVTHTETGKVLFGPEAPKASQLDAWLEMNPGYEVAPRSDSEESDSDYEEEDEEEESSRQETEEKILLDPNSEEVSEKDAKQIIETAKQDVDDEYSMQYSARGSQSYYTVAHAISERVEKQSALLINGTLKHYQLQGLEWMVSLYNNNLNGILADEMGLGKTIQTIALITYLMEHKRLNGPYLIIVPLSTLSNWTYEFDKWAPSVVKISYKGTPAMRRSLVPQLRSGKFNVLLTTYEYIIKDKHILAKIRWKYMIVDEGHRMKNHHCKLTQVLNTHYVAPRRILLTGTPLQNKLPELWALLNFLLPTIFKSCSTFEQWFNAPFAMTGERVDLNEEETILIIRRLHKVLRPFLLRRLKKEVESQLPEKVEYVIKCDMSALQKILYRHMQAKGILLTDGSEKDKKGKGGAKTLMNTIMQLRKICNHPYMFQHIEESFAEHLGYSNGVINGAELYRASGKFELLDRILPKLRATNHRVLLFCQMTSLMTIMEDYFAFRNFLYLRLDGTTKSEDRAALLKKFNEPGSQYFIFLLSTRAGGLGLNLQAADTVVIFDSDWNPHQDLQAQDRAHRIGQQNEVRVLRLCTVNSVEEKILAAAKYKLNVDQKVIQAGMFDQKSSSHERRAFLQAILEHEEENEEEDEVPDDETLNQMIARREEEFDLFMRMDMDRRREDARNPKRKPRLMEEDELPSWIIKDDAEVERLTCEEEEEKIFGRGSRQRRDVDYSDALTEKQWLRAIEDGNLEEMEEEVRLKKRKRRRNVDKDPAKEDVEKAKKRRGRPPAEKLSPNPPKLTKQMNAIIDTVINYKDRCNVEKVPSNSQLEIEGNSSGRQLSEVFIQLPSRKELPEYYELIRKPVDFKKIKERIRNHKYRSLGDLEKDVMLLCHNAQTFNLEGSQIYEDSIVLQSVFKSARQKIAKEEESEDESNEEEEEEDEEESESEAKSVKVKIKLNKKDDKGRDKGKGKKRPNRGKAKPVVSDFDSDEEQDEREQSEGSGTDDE

As for `CC(=O)NCc1ccc(-c2cccc(-c3csc(NC(=O)CNC(=O)c4ccc(N)cc4)n3)c2)cc1` [Compound 123, N-(2-((4-(4′-(acetamidomethyl)-[1,1′-biphenyl]-3-yl)thiazol-2-yl)amino)-2-oxoethyl)-4-aminobenzamide], at BRM, the IC50 fell in the range of 100 to 1000 nM and the “BRM Max % Inhibition” value was >80%. Further, on BRG-1, the IC50 is 100 to 1000 nM and the “BRG1 Max % Inhibition” value is >80%.
On to `CC(=O)NCc1cccc(-c2cccc(-c3csc(NC(=O)CNC(=O)c4ccc(N)cc4)n3)c2)c1` [Compound 124, N-(2-((4-(3′-(acetamidomethyl)-[1,1′-biphenyl]-3-yl)thiazol-2-yl)amino)-2-oxoethyl)-4-aminobenzamide], for which, at BRM, the IC50 lay within 100 to 1000 nM and the “BRM Max % Inhibition” value is >95%. At BRG-1, the IC50 was 100 to 1000 nM and the “BRG1 Max % Inhibition” value is given as >95%.
As for `C[C@H](NC(=O)c1ccc(N)cc1)C(=O)Nc1nc(-c2cccc(-c3ccncc3)c2)cs1` [Compound 125, (S)-4-amino-N-(1-oxo-1-((4-(3-(pyridin-4-yl)phenyl)thiazol-2-yl)amino)propan-2-yl)benzamide], on BRM, the IC50 is < 100 nM and the “BRM Max % Inhibition” value is given as >95%. Also, at BRG-1, the IC50 was < 100 nM and the “BRG1 Max % Inhibition” value is reported as >95%.
For `CNc1ccc(C(=O)NCC(=O)Nc2nc(-c3cccc(-c4ccncc4)c3)cs2)cc1` [Compound 126, 4-(methylamino)-N-(2-oxo-2-((4-(3-(pyridin-4-yl)phenyl)thiazol-2-yl)amino)ethyl)benzamide], on BRM, the IC50 was < 100 nM and the “BRM Max % Inhibition” value is given as >80%. In addition, at BRG-1, the IC50 is < 100 nM and the “BRG1 Max % Inhibition” value was >80%.
As to `COc1ccc(-c2cccc(-c3csc(NC(=O)CNC(=O)c4ccc(N)cc4)n3)c2)cn1` [Compound 127, 4-amino-N-(2-((4-(3-(6-methoxypyridin-3-yl)phenyl)thiazol-2-yl)amino)-2-oxoethyl)benzamide], on BRM, the IC50 fell in the range of 100 to 1000 nM and the “BRM Max % Inhibition” value is given as >90%. On BRG-1, the IC50 was 100 to 1000 nM and the “BRG1 Max % Inhibition” value was >80%.
Regarding `CSCC[C@H](NC(=O)c1ccc(N)cc1)C(=O)Nc1nc(-c2cccc(-c3nnco3)c2)cs1` [Compound 128, (S)-N-(1-((4-(3-(1,3,4-oxadiazol-2-yl)phenyl)thiazol-2-yl)amino)-4-(methylthio)-1-oxobutan-2-yl)-4-aminobenzamide], on BRM, the IC50 is < 100 nM and the “BRM Max % Inhibition” value was >95%. On BRG-1, the IC50 is < 100 nM and the “BRG1 Max % Inhibition” value is >95%.
Take `CC(=O)N(C)Cc1cccc(-c2cccc(-c3csc(NC(=O)CNC(=O)c4ccc(N)cc4)n3)c2)c1` [Compound 129, 4-amino-N-(2-((4-(3′-((N-methylacetamido)methyl)-[1,1′-biphenyl]-3-yl)thiazol-2-yl)amino)-2-oxoethyl)benzamide]: at BRM, the IC50 lay in the range of 100 to 1000 nM and the “BRM Max % Inhibition” value is >95%. Moreover, on BRG-1, the IC50 is 100 to 1000 nM and the “BRG1 Max % Inhibition” value was >95%.
Consider `CNC(=O)c1ccc(-c2cccc(-c3csc(NC(=O)CNC(=O)c4ccc(N)cc4)n3)c2)cc1` [Compound 130, 3′-(2-(2-(4-aminobenzamido)acetamido)thiazol-4-yl)-N-methyl-[1,1′-biphenyl]-4-carboxamide], for which, on BRM, the IC50 was 100 to 1000 nM and the “BRM Max % Inhibition” value is >70%. Further, at BRG-1, the IC50 lay within 1000 to 10000 nM and the “BRG1 Max % Inhibition” value is >70%.
For `CN(C)C(=O)c1cccc(-c2cccc(-c3csc(NC(=O)CNC(=O)c4ccc(N)cc4)n3)c2)c1` [Compound 131, 3′-(2-(2-(4-aminobenzamido)acetamido)thiazol-4-yl)-N,N-dimethyl-[1,1′-biphenyl]-3-carboxamide], at BRM, the IC50 was < 100 nM and the “BRM Max % Inhibition” value is reported as >95%. Moreover, at BRG-1, the IC50 was < 100 nM and the “BRG1 Max % Inhibition” value is reported as >95%.
Take `CN(C)c1ccc(C(=O)NCC(=O)Nc2nc(-c3cccc(-c4ccncc4)c3)cs2)cc1` [Compound 132, 4-(dimethylamino)-N-(2-oxo-2-((4-(3-(pyridin-4-yl)phenyl)thiazol-2-yl)amino)ethyl)benzamide]: at BRM, the IC50 is < 100 nM and the “BRM Max % Inhibition” value is recorded as >80%. Further, at BRG-1, the IC50 is < 100 nM and the “BRG1 Max % Inhibition” value is >70%.
Consider `Nc1ccc(C(=O)NCC(=O)Nc2nc(-c3cccc(-c4ccnc(N)c4)c3)cs2)cc1` [Compound 133, 4-amino-N-(2-((4-(3-(2-aminopyridin-4-yl)phenyl)thiazol-2-yl)amino)-2-oxoethyl)benzamide], for which, on BRM, the IC50 was < 100 nM and the “BRM Max % Inhibition” value was >95%. On BRG-1, the IC50 is < 100 nM and the “BRG1 Max % Inhibition” value is reported as >95%.
In the case of `CS(=O)(=O)c1ccc(-c2cccc(-c3csc(NC(=O)CNC(=O)c4ccc(N)cc4)n3)c2)cc1` [Compound 134, 4-amino-N-(2-((4-(4′-(methylsulfonyl)-[1,1′-biphenyl]-3-yl)thiazol-2-yl)amino)-2-oxoethyl)benzamide], on BRM, the IC50 fell in the range of 100 to 1000 nM and the “BRM Max % Inhibition” value was >50%. Moreover, on BRG-1, the IC50 fell in the range of 100 to 1000 nM and the “BRG1 Max % Inhibition” value was >50%.
Consider `NCc1cccc(-c2cccc(-c3csc(NC(=O)CNC(=O)c4ccc(N)cc4)n3)c2)c1` [Compound 135, 4-amino-N-(2-((4-(3′-(aminomethyl)-[1,1′-biphenyl]-3-yl)thiazol-2-yl)amino)-2-oxoethyl)benzamide], for which, at BRM, the IC50 is < 100 nM and the “BRM Max % Inhibition” value was >95%. Further, at BRG-1, the IC50 was < 100 nM and the “BRG1 Max % Inhibition” value is listed as >95%.
Regarding `Nc1ccc(C(=O)NCC(=O)Nc2nc(-c3cccc(-c4cccc(C(=O)O)c4)c3)cs2)cc1` [Compound 136, 3′-(2-(2-(4-aminobenzamido)acetamido)thiazol-4-yl)-[1,1′-biphenyl]-3-carboxylic acid], at BRM, the IC50 is 100 to 1000 nM and the “BRM Max % Inhibition” value was >95%. At BRG-1, the IC50 was 100 to 1000 nM and the “BRG1 Max % Inhibition” value is on record as >95%.
Regarding `CN(C)C(=O)c1ccc(-c2cccc(-c3csc(NC(=O)CNC(=O)c4ccc(N)cc4)n3)c2)cc1` [Compound 137, 3′-(2-(2-(4-aminobenzamido)acetamido)thiazol-4-yl)-N,N-dimethyl-[1,1′-biphenyl]-4-carboxamide], at BRM, the IC50 was 100 to 1000 nM and the “BRM Max % Inhibition” value is >90%. Besides, on BRG-1, the IC50 lay within 100 to 1000 nM and the “BRG1 Max % Inhibition” value is reported as >95%.
As for `CC(=O)N(C)Cc1ccc(-c2cccc(-c3csc(NC(=O)CNC(=O)c4ccc(N)cc4)n3)c2)cc1` [Compound 138, 4-amino-N-(2-((4-(4′-((N-methylacetamido)methyl)-[1,1′-biphenyl]-3-yl)thiazol-2-yl)amino)-2-oxoethyl)benzamide], on BRM, the IC50 is 100 to 1000 nM and the “BRM Max % Inhibition” value was >90%. Further, on BRG-1, the IC50 is 100 to 1000 nM and the “BRG1 Max % Inhibition” value is given as >90%.
Regarding `Nc1ccc(C(=O)NCC(=O)Nc2nc(-c3cccc(-c4ccc(O)cc4)c3)cs2)cc1` [Compound 139, 4-amino-N-(2-((4-(4′-hydroxy-[1,1′-biphenyl]-3-yl)thiazol-2-yl)amino)-2-oxoethyl)benzamide], on BRM, the IC50 was < 100 nM and the “BRM Max % Inhibition” value was >95%. Besides, on BRG-1, the IC50 is < 100 nM and the “BRG1 Max % Inhibition” value is reported as >95%.
As to `Cn1ccc(-c2cccc(-c3csc(NC(=O)CNC(=O)c4ccc(N)cc4)n3)c2)cc1=O` [Compound 140, 4-amino-N-(2-((4-(3-(1-methyl-2-oxo-1,2-dihydropyridin-4-yl)phenyl)thiazol-2-yl)amino)-2-oxoethyl)benzamide], at BRM, the IC50 was 100 to 1000 nM and the “BRM Max % Inhibition” value was >95%. On BRG-1, the IC50 was 100 to 1000 nM and the “BRG1 Max % Inhibition” value was >90%.
On to `Nc1ccc(C(=O)NCC(=O)Nc2nc(-c3cccc(-c4cccc(O)c4)c3)cs2)cc1` [Compound 141, 4-amino-N-(2-((4-(3′-hydroxy-[1,1′-biphenyl]-3-yl)thiazol-2-yl)amino)-2-oxoethyl)benzamide], for which, at BRM, the IC50 is < 100 nM and the “BRM Max % Inhibition” value is listed as >95%. Further, on BRG-1, the IC50 was 100 to 1000 nM and the “BRG1 Max % Inhibition” value is on record as >95%.
`Nc1ccc(C(=O)NCC(=O)Nc2nc(-c3cccc(-c4ccccc4F)c3)cs2)cc1` [Compound 142, 4-amino-N-(2-((4-(2′-fluoro-[1,1′-biphenyl]-3-yl)thiazol-2-yl)\amino)-2-oxoethyl)benzamide]: at BRM, the IC50 lay within 100 to 1000 nM and the “BRM Max % Inhibition” value is on record as >90%. On BRG-1, the IC50 lay in the range of 100 to 1000 nM and the “BRG1 Max % Inhibition” value is given as >90%.
Take `Cn1ccc2ccc(-c3csc(NC(=O)CNC(=O)c4ccc(N)cc4)n3)cc2c1=O` [Compound 143, 4-amino-N-(2-((4-(2-methyl-1-oxo-1,2-dihydroisoquinolin-7-yl)thiazol-2-yl)amino)-2-oxoethyl)benzamide]: at BRM, the IC50 is < 100 nM and the “BRM Max % Inhibition” value is >95%. In addition, at BRG-1, the IC50 is < 100 nM and the “BRG1 Max % Inhibition” value is on record as >95%.
Turning to `CNC(=O)c1cccc(-c2cccc(-c3csc(NC(=O)CNC(=O)c4ccc(N)cc4)n3)c2)c1` [Compound 144, 3-[3-[2-[[2-[(4-aminobenzoyl)amino]acetyl]amino]thiazol-4-yl]phenyl]-N-methyl-benzamide], at BRM, the IC50 lay in the range of 100 to 1000 nM and the “BRM Max % Inhibition” value is >95%. In addition, at BRG-1, the IC50 was in the range of 100 to 1000 nM and the “BRG1 Max % Inhibition” value was >95%.
On to `CN(C)Cc1ccc(-c2cccc(-c3csc(NC(=O)CNC(=O)c4ccc(N)cc4)n3)c2)cc1` [Compound 145, 4-amino-N-(2-((4-(4′-((dimethylamino)methyl)-[1,1′-biphenyl]-3-yl)thiazol-2-yl)amino)-2-oxoethyl)benzamide], for which, at BRM, the IC50 is 100 to 1000 nM and the “BRM Max % Inhibition” value is >90%. In addition, on BRG-1, the IC50 lay in the range of 100 to 1000 nM and the “BRG1 Max % Inhibition” value is given as >90%.

The record behind these values is patent publication US11497752B2, “Compounds and uses thereof” (Foghorn Therapeutics Inc., priority 2018, dated 2022).
